Measurements from patent publication US6335339B1, “Triazine antiviral compounds” (Scriptgen Pharmaceuticals, Inc., priority 1998, dated 2002).

Tested on: HBV εRNA
Test: εRNA/oligonucleotide hybridization inhibition assay with rRNA competitor
Format: binding, Hepatitis B virus
Conditions: for IC50: radiolabeled εRNA, 60-fold excess rRNA competitor; for Specificity: ratio RRE+rRNA IC50/εRNA+rRNA IC50, max = inactive in RRE assay
Procedure, shortened: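 Inhibition of hybridization between 25 nM [32P]-εRNA and 100 nM biotinylated complementary oligonucleotide (50 mM Tris-HCl pH 7.5, 200 mM KCl, 5 mM MgCl2, 60 min, 25 °C), hybrids captured by streptavidin filter and counted. Titrations 0.1-200 μM with 60-fold excess rRNA; specificity = RRE+rRNA IC50/εRNA+rRNA IC50.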

C(=NNc1nc(Nc2ccccc2)nc(N2CCCCC2)n1)c1ccccc1 [Compound 3]
IC50: 66.9 µM
Specificity: max.

Cc1[nH]c2ccccc2c1C=NNc1nc(Nc2ccccc2)nc(N2CCOCC2)n1 [Compound 4]
IC50: 16.3 µM
Specificity: max.

FC(F)(F)c1cccc(Nc2nc(Nc3cccc(Br)c3)nc(N3CCOCC3)n2)c1 [Compound 38]
IC50: 34.9 µM
Specificity: max.

CCCCN(CCCC)c1nc(NN=Cc2c[nH]c3ccccc23)nc(Nc2ccc([N+](=O)[O-])cc2)n1 [Compound 39]
IC50: 39.9 µM
Specificity: max.

Cc1ccc(Nc2nc(NN=Cc3ccc(Cl)c(Cl)c3)nc(Nc3ccccc3)n2)c(C)c1 [Compound 40]
IC50: 21.9 µM
Specificity: max.

O=[N+]([O-])c1ccc(Nc2nc(N/N=C/c3cccc(Cl)c3)nc(N3CCCCC3)n2)cc1 [Compound 41]
IC50: 24.9 µM
Specificity: max.

Cc1ccc(Nc2nc(NN=Cc3ccc(Cl)cc3)nc(Nc3ccccc3)n2)c(C)c1 [Compound 42]
IC50: 30 µM
Specificity: max.

Brc1cc2c(cc1C=NNc1nc(NCc3ccccc3)nc(Nc3ccccc3)n1)OCO2 [Compound 43]
IC50: 30.1 µM
Specificity: max.

COc1ccc(C=NNc2nc(Nc3ccc([N+](=O)[O-])cc3)nc(N3CCCCC3)n2)cc1 [Compound 44]
IC50: 35 µM
Specificity: max.

O=[N+]([O-])c1ccc(C=NNc2nc(Nc3ccccc3)nc(NC3CCCCC3)n2)cc1 [Compound 46]
IC50: 23.1 µM
Specificity: max.

Cc1ccc(Nc2nc(NN=Cc3cccc(Br)c3)nc(Nc3ccccc3)n2)c(C)c1 [Compound 49]
IC50: 35 µM
Specificity: max.

Cc1[nH]c2ccccc2c1C=NNc1nc(NCc2ccccc2)nc(Nc2ccccc2)n1 [Compound 50]
IC50: 39.9 µM
Specificity: max.

Cc1ccc(Nc2nc(NN=Cc3ccc4c(c3)OCO4)nc(Nc3ccccc3)n2)c(C)c1 [Compound 51]
IC50: 39.9 µM
Specificity: max.

O=[N+]([O-])c1cc(C=NNc2nc(Nc3ccccc3)nc(N3CCOCC3)n2)ccc1Cl [Compound 52]
IC50: 66 µM
Specificity: max.

Oc1ccc(Nc2nc(Nc3cccc(C(F)(F)F)c3)nc(N3CCOCC3)n2)cc1 [Compound 53]
IC50: 70.1 µM
Specificity: max.

CC(C)c1ccc(C=NNc2nc(Nc3ccc([N+](=O)[O-])cc3)nc(N3CCCCCC3)n2)cc1 [Compound 56]
IC50: 42.1 µM
Specificity: max.

COc1ccc(C=NNc2nc(Nc3ccccc3)nc(Nc3ccc(C)cc3C)n2)c(OC)c1 [Compound 61]
IC50: 42.6 µM
Specificity: max.

CC(C)c1ccc(C=NNc2nc(Nc3ccc([N+](=O)[O-])cc3)nc(N3CCCCC3)n2)cc1 [Compound 62]
IC50: 54.3 µM
Specificity: max.

CCN(CC)c1nc(N/N=C/c2ccc([N+](=O)[O-])cc2)nc(Nc2cc(C)ccc2C)n1 [Compound 63]
IC50: 69 µM
Specificity: max.

CNc1nc(NN=Cc2ccccc2[N+](=O)[O-])nc(Nc2ccccc2)n1 [Compound 65]
IC50: 99.9 µM
Specificity: max.

CC(C)(C)Nc1nc(NCc2ccccc2)nc(NN=Cc2ccc3c(c2)OCO3)n1 [Compound 67]
IC50: 47.7 µM
Specificity: max.

CCN(CC)c1nc(NN=Cc2ccc(F)cc2)nc(Nc2ccc([N+](=O)[O-])cc2)n1 [Compound 68]
IC50: 33 µM
Specificity: max.

CCCCN(CCCC)c1nc(NN=C(C)c2ccccc2)nc(Nc2ccc([N+](=O)[O-])cc2)n1 [Compound 74]
IC50: 126 µM
Specificity: max.

CCN(CC)c1nc(NN=Cc2cc([N+](=O)[O-])ccc2OC)nc(Nc2cc(C)ccc2C)n1 [Compound 85]
IC50: 53.8 µM
Specificity: max.

Cc1[nH]c2ccccc2c1C=NNc1nc(Nc2ccccc2)nc(N2CCCCC2)n1 [Compound 88]
IC50: 11.7 µM
Specificity: 80.2

C(=Cc1ccccc1)C=NNc1nc(NCc2ccccc2)nc(Nc2ccccc2)n1 [Compound 91]
IC50: 17.1 µM
Specificity: 46.8

CC(C)(C)Nc1nc(NCc2ccccc2)nc(N/N=C/c2ccccc2F)n1 [Compound 93, 2-fluorobenzaldehyde N-[4-(benzylamino)-6-(tert-butylamino)-1,3,5-triazin-2-yl]hydrazone]
IC50: 12.7 µM
Specificity: max

COc1ccccc1C=NNc1nc(Nc2ccc([N+](=O)[O-])cc2)nc(Nc2ccc(C)c(C)c2)n1 [Compound 94]
IC50: 12 µM
Specificity: 20.8
